From PMC12120644, “Modulation of the Inflammatory Process through the Control of Cyclooxygenase Using Peptides Obtained from Lithobates Catesbeianus Identified by Molecular Docking” (ACS Omega, 2025)
“Also recorded” adds a separate entry of the source. No end group written: not given here.

Tests used:
IL-6 = IL-6 immunoassay (ELISA), LPS-stimulated macrophages; type: cell-based, murine; details: LPS 1 μg/mL for 4 h, 1 mM the only significant of 0.025, 0.05, 0.5, and 1 mM, ELISA 405 nm
Description: Quantification of IL-6 was determined using the Murine Mini ABTS IL-6 ELISA kit (PeproTech, Cat No. 900-M50), according to the manufacturer’s instructions. The absorbance was measured at 405 nm, and IL-6 concentrations were quantified based on the IL-6 standard curve (0−4000 pg/mL).
5 IL-6 concentration (pg/mL) in macrophages treated at 0.025, 0.05, 0.5, and 1.0 mM peptide 1 and exposure to 1 μg/mL LPS for 4 h. Ctrl-: Negative control (cells + DMEM); Ctrl+: Positive control 1 (cells + DMEM+ and LPS); P1 (cells + DMEM + peptide at different concentrations + LPS). Data (n = 3) are expressed as mean and standard error.

total cyclooxygenase = test: COX inhibition assay (total COX activity, LPS-stimulated RAW 264.7); type: cell-based; details: RAW 264.7 stimulated with LPS 1 μg/mL for 4 h, peptide 1 mM, chemiluminescent enzymatic kit (Cayman), vs LPS control, t test P < 0.05
Description: The in vitro total cyclooxygenase inhibition was evaluated using a chemiluminescent enzymatic kit (Cayman Chemical, MI), according to the manufacturer’s protocol. The RAW 264.7 cell line was purchased from the American Type Culture Collection (Rockville, MD) and routinely grown in DMEM supplemented with 10% fetal bovine serum (FBS). The cells were subcultured every 3 to 4 days at 1 × 10^8 cells/mL. The positive control group was exposed to lipopolysaccharide (LPS) at 1 μg/mL for 4 h to induce inflammation. Cells were collected and centrifuged at 600g for 10 min at 4 °C. The supernatant was carefully removed and cells were resuspended in 2 mL of DMEM, resulting in 1 × 10^8 cells/mL.
4 Effect of SGHPGAMGPVGPR (P1), IGPAGSAGSR (P2), GPSGPAGARGDK (P3), and […] (P4) peptides on the total COX activity. The RAW 264.7 cells were subcultured at 1 × 10^8 cells/mL density and stimulated with LPS at 1 μg/mL for 4 h. Cells were collected by centrifugation at a speed of 2.000 rpm for 10 min at 4 °C and were resuspended in DMEM. After that, cells were treated with the peptides, and ELISA was performed. Significant by the t test (P < 0.05). CTRL: control (cells stimulated with LPS).

SGHPGAMGPVGPR [Peptide P1]
IL-6 levels (in words) (IL-6; n = 3): downregulating IL-6 expression; also recorded: significantly downregulated IL-6 levels in a dose-dependent manner
IL-6 levels (in words) (IL-6; n = 3, listed as peptide 1): best results in decreasing the cells’ total COX and IL-6 cytokines
total COX activity (in words) (total cyclooxygenase): effectively inhibiting total COX activity; also recorded: only peptide P1 exhibited an inhibitory capacity on the total COX activity; also recorded: only P1 demonstrated the ability to reduce the total COX activity
total COX activity (in words) (total cyclooxygenase; listed as peptide 1): best results in decreasing the cells’ total COX
